Assays:
ischemic myocardium = type: in vivo, dog; conditions: vs saline-treated animals, 5 and 60 minutes of ischemia
Description: Thirteen mongrel dogs were anesthetized with phenobarbital. […] C.V. Dis. 20; 55 (1977).

myocardial infarct = experiment: Myocardial infarct size in rats after coronary artery ligation; type: in vivo, rat; conditions: bolus plus osmotic mini-pump infusion, three weeks, vs saline
Description: The animals were continuously exposed by infusion of either AICA riboside in saline or saline using osmotic mini-pumps well known to those in the art. After three weeks, the rats were sacrificed and infarct size quantitated by planimarizing stained sections of fixed hearts.

[1] = system: adenylosuccinase deficiency (autism); experiment: Therapeutic trial of oral AICA riboside in patients with adenylosuccinase deficiency (autism); type: in vivo, human
Description: Following authorization, therapeutic trials with AICA riboside were started in two patients with adenylosuccinase deficiency (autism). […] On Day 55, both patients were briefly readmitted for clinical, biochemical and psychiatric evaluation. […] Treatment was maintained until Day 71, and arrested at that date. […] A correct assessment of the renal loss of the nucleoside could not be obtained. […] The following parameters were found normal before and during the trial treatment with AICA riboside: red blood cell count, white blood cell count, platelet and reticulocyte counts; leukocyte differentiations; hematocrit, ionogram, Ca, phosphate, urea, creatinine, uric acid, cholesterol, lipids, SGOT, SGPT, CPK, glucose, lactate and ammonia.

[2] = system: pentylene tetrazol-induced seizures; experiment: Suppression of pentylene tetrazol-induced seizures; type: in vivo, rat; conditions: 2000 mg/kg (total dose) intraperitoneal
[3] = Phase 2 CABG trial: safety (serum glucose, uric acid, adverse events); type: in vivo, human
Description: In addition to the hemodynamic monitoring described above the following tests were performed at screening, on the first post-operative day and at discharge:
1. Hematology included hemoglobin, total white cell count and differential, hematocrit and platelet count.
4. Any adverse events were recorded throughout by the investigator, who assessed their severity and the relationship of these adverse experiences to the treatment.
11. Adverse Effects. The incidence, severity and drug-relatedness of any adverse effects were tabulated by treatment group by decreasing incidence of such effects in the high dose group. Statistical analysis was not performed.

[4] = system: patients undergoing CABG surgery; experiment: Phase 2 CABG trial: difficulty in weaning from bypass; type: in vivo, human; conditions: for WEANING TIME: Pts without Difficulty
Description: During surgery, anesthesia was maintained by continuous infusion of fentanyl and midazolam. Routine clinical parameters were recorded using standard operating room monitoring equipment. Continuous 2-lead Holter ECG and TEE data were recorded. Standard surgical procedures (e.g., aorta cross-clamping, crystalloid cardioplegia, cardiopulmonary bypass, hypothermia) were used. Anastomoses were constructed, aorta cross-clamp removed and patients were discontinued from bypass when body temperature was 37° C. The quality of anastomosis was judged by the surgeon. Difficulty in weaning from bypass was judged by need for one or more of the following: pacemaker, return to bypass, balloon pump or vasopressor administration. Hemodynamic measurements, including heart rate, arterial blood pressure, pulmonary capillary wedge pressure and cardiac output, were recorded before stemotomy, 15 and 30 min after bypass and upon chest closure. Radial artery and pulmonary artery pressures, myocardial and whole body temperature, O2 saturation, end-tidal CO2 and arterial blood gases were measured, and ECG recordings were obtained as clinically indicated. Hemodynamic variables (blood pressure, heart rate, pulmonary capillary wedge pressure) were controlled within 20% of baseline using prescribed regimens.
The incidence of adverse clinical outcomes, such as cardiac death (death of patient attributable to primarily cardiac causes, non-fatal transmural MI (as measured by the appearance of a new Q-wave on 12-lead ECG plus a CK-MB value of ≧50 units), non-transmural MI (CK-MB value of ≧50 units), congestive heart failure (low cardiac output requiring intra-aortic balloon pump or left ventricular assist device) or life-threatening dysrhythmia (ventricular fibrillation, or ventricular tachycardia requiring cardioversion or drug treatment) was compared between the placebo and treatment groups. For the diagnosis of myocardial infarction, ECG tracings and CK-MB values were assessed centrally by observers blinded to treatment. The difficulty of weaning the patient from bypass, if any, was compared between placebo and treatment groups by noting need for one or more of the following: pacemaker, return to bypass, balloon pump or use of vasopressors.
8. Difficulty in Weaning. Patients were considered to have difficulty in weaning if they needed one or more of the following interventions: pacemaker, return to bypass, balloon pump or use of vasopressors. The number of patients receiving each of the above interventions was analyzed using a X^2 and Fisher's exact test, as was the number of patients classified as having difficulty in weaning. In addition, the time to weaning (defined as time from cross-clamp removal to end of bypass) in the patients experiencing difficulty were compared by a 1-way analysis of variance.
As noted, patients were determined as being difficult to remove from cardiopulmonary bypass if they required one or more of the following interventions: insertion of a pacemaker, return to bypass, use of a balloon pump or administration of vasopressors, or another intervention which the investigation determines is indicative of difficulty in weaning. […] When a combination of the high and low dose groups were compared to placebo (Table 9b), the reduced need for vasopressor support approached statistical significance (p=0.08). […] There were no differences in any of the weaning difficulty parameters discussed above between the high and low dose groups (Table 9c).

[5] = system: patients undergoing CABG surgery; type: in vivo; conditions: 0.05 mg/kg/min

## NC(=O)c1ncn([C@@H]2O[C@H](CO)[C@@H](O)[C@H]2O)c1N [1 (1-110), 5-amino-1-β-D-ribofuranosyl-imidazole-4-carboxamide]
Ischemic myocardium
  regional myocardial blood flow to the ischemic myocardium: significantly greater
Myocardial infarct
  reduction of infarct size: 33%
[1]; oral 5 mg/kg/day up to 2×10 mg/kg/day
  side effects: No clinical or biochemical side effects were observed
[1]; oral, all dosages used
  AICA riboside in plasma and CSF: could not be detected
[1]; younger patient, older patient without modification
  autistic features after two months of continuous administration: clear-cut improvement
[2]
  latency to seizure: dramatic prolongation of latency to seizure
[3]; 0.05 mg/kg/min (n = 41)
  SERUM GLUCOSE, MEAN BASELINE: 108.5 ± 4.8 mg/dL
  SERUM URIC ACID, MEAN BASELINE: 5.9 ± 0.2 mg/dL
[3]; 0.05 mg/kg/min, 24 HR POST
  SERUM GLUCOSE-MEAN CHANGES FROM BASELINE: 44.2 ± 7.4 mg/dL
  SERUM URIC ACID-MEAN CHANGES FROM BASELINE: -0.5 ± 0.2 mg/dL
[3]; 0.05 mg/kg/min, DISCHARGE
  SERUM GLUCOSE-MEAN CHANGES FROM BASELINE: 18.7 ± 6.3 mg/dL
  SERUM URIC ACID-MEAN CHANGES FROM BASELINE: 0.3 ± 0.2 mg/dL
[3]; 0.05 mg/kg/min, ICU + 0
  SERUM GLUCOSE-MEAN CHANGES FROM BASELINE: 65.6 + 7.6 mg/dl
  SERUM URIC ACID-MEAN CHANGES FROM BASELINE: -0.3 ± 0.1 mg/dL
[3]; 0.05 mg/kg/min, ICU + 4 HR
  SERUM GLUCOSE-MEAN CHANGES FROM BASELINE: 53.6 + 11.9 mg/dl
  SERUM URIC ACID-MEAN CHANGES FROM BASELINE: -0.1 ± 0.1 mg/dL
[3]; 0.05 mg/kg/min, ICU + 8 HR
  SERUM GLUCOSE-MEAN CHANGES FROM BASELINE: 58.8 + 12.1 mg/dl
  SERUM URIC ACID-MEAN CHANGES FROM BASELINE: -0.0 ± 0.1 mg/dL
[3]; 0.05 mg/kg/min, POST CPB
  SERUM GLUCOSE-MEAN CHANGES FROM BASELINE: 116.5 ± 10.7 mg/dL
  SERUM URIC ACID-MEAN CHANGES FROM BASELINE: -0.6 ± 0.1 mg/dL
[3]; 0.05 mg/kg/min, PRE CPB
  SERUM GLUCOSE-MEAN CHANGES FROM BASELINE: 18.6 ± 7.0 mg/dL
  SERUM URIC ACID-MEAN CHANGES FROM BASELINE: -0.1 ± 0.1 mg/dL
[3]; 0.10 mg/kg/min (n = 35)
  SERUM GLUCOSE, MEAN BASELINE: 120.6 ± 7.3 mg/dL
  SERUM URIC ACID, MEAN BASELINE: 5.7 ± 0.2 mg/dL
[3]; 0.10 mg/kg/min, 24 HR POST
  SERUM URIC ACID-MEAN CHANGES FROM BASELINE: 0.3 ± 0.3 mg/dL
[3]; 0.10 mg/kg/min, DISCHARGE
  SERUM GLUCOSE-MEAN CHANGES FROM BASELINE: 19.2 ± 7.0 mg/dL
  SERUM URIC ACID-MEAN CHANGES FROM BASELINE: -0.1 ± 0.2 mg/dL
[3]; 0.10 mg/kg/min, ICU + 0
  SERUM GLUCOSE-MEAN CHANGES FROM BASELINE: 59.8 + 13.6 mg/dl
  SERUM URIC ACID-MEAN CHANGES FROM BASELINE: 1.5 ± 0.2 mg/dL
[3]; 0.10 mg/kg/min, ICU + 4 HR
  SERUM GLUCOSE-MEAN CHANGES FROM BASELINE: 55.5 + 9.6 mg/dl
  SERUM URIC ACID-MEAN CHANGES FROM BASELINE: 1.6 ± 0.2 mg/dL
[3]; 0.10 mg/kg/min, ICU + 8 HR
  SERUM GLUCOSE-MEAN CHANGES FROM BASELINE: 44.4 + 7.5 mg/dl
  SERUM URIC ACID-MEAN CHANGES FROM BASELINE: 1.4 ± 0.2 mg/dL
[3]; 0.10 mg/kg/min, POST CPB
  SERUM GLUCOSE-MEAN CHANGES FROM BASELINE: 120.6 ± 15.9 mg/dL
  SERUM URIC ACID-MEAN CHANGES FROM BASELINE: 0.4 ± 0.1 mg/dL
[3]; 0.10 mg/kg/min, PRE CPB
  SERUM GLUCOSE-MEAN CHANGES FROM BASELINE: 4.8 ± 3.4 mg/dL
  SERUM URIC ACID-MEAN CHANGES FROM BASELINE: 0.4 ± 0.1 mg/dL
[3]; 0.19 or 0.38 mg/kg/min, five drug-treated patients
  uric acid effects in the initial high dose patients: significant hyperuricemia and elevated urinary uric acid levels with crystalluria
[3]; low dose group (0.05 mg/kg/min)
  drug-treated patients with adverse events: 28/41
[4]; 0.05 mg/kg/min
  WEANING TIME: 20.4 +/− 2.5
[4]; 0.1 mg/kg/min
  WEANING TIME: 16.3 +/− 1.9
[4]; 0.05 + 0.10, 76 patients
  PATIENTS WITH ANY DIFFICULTY WEANING: 15 (19.7%)
[4]; 0.05, 41 patients
  PATIENTS WITH ANY DIFFICULTY WEANING: 7 (17%)
[4]; 0.10, 35 patients
  PATIENTS WITH ANY DIFFICULTY WEANING: 8 (23%)
[5]
  effect of low-dose acadesine on outcome: no significant effect on any outcome measure
